This note sets out measurements from US20050075398A1, “Neuroprotectin D1 protects against cellular apoptosis, stroke damage, alzheimer's disease and retinal diseases” (priority 2003, published 2005).

Entries after “also recorded” stand apart in the source; their conditions may differ.

The subject of experiment [1] is polymorphonuclear leukocyte infiltration (myeloperoxidase activity). The experiment is described as follows: Myeloperoxidase (MPO) activity assay in hippocampus and neocortex after MCA-O and reperfusion. Type of experiment: in vivo, mouse. The following applies: 1 h MCA-O, 48 h reperfusion. The protocol:
Middle Cerebral Artery Occlusion (MCA-O) and reperfusion. Experimental protocols were reviewed and approved by the Institutional Animal Care and Use Committee of Louisiana State University Health Sciences Center, New Orleans. Mice (20-25 g body wt) were induced with 2% isoflurane in a mixture of 70% nitrous oxide and 30% oxygen. Anesthesia was maintained with 1% isoflurane. Temperature was maintained at 36.5-37.5° C. using a Harvard homeothermic blanket. P 10 polyethylene catheters were placed in the femoral artery and vein, and the blood pressure was monitored. Arterial blood was analyzed for PO2, PCO2, and pH after 1 h of ischemia and 30 min after the onset of reperfusion. The common carotid and external carotid arteries were temporarily ligated with a retracting suture, and the external carotid artery was dissected just proximal to its bifurcation. The occluding filament was introduced from the external carotid artery and advanced to the internal carotid artery. The AVM micro clip was removed. The filament was advanced so that the blunted tip lay in the anterior cerebral artery and the side of the filament occluded the origin of the middle cerebral artery (MCA). The stump of the external carotid artery was ligated, and tension on the retracting suture to the common carotid artery was gently released, restoring blood flow to the carotid system.
Occlusion of the middle cerebral artery (MCA-O) was maintained for 1 h; reperfusion was then established by delicate retrieval of the occluding suture from the arterial lumen, restoring blood flow to the region of the MCA. The mice were then killed, and the hippocampus and brain cortex rapidly dissected and frozen. Samples were kept at −80° C. until analysis. In some experiments, aspirin (7.5 mg/kg) was administered by gavage 15 min before MCA-O.
Polymorphonuclear leukocyte infiltration measurement by the myeloperoxidase (MPO) assay. Inhibition of leukocyte infiltration by 10,17S-docosatriene (NPD1) or docosahexaenoic acid (DHA) was measured in mouse hippocampus and neocortex after 1 h of middle cerebral artery occlusion (MCA-O) and 48 h of reperfusion. Lipids were delivered for each experiment by perfusion (250 nl/h) through Alzet minipumps implanted into the third ventricle. Hippocampus and neocortex from the ipsilateral (MCA-O-reperfusion) and contralateral sides were rapidly dissected. Brain samples were assayed for myeloperoxidase activity as described in Huang, J., Choudhri, T. F., Winfree, C. J., McTaggart, R. A., Kiss, S., Mocco, J., Kim, L. J., Protopsaltis, T. S., Zhang, Y., Pinsky, D. J., and Connolly Jr., E. S. (2000) Stroke 31, 3047-3053. Briefly, brain tissues were homogenized in 10 mM phosphate buffer (pH 7.4), then frozen and thawed with liquid N2 followed by sonication. Samples were precipitated at 10,000×g for 10 min, then aliquots of supernatants were added to 10 mM phosphate buffer (pH 6.0) and a substrate solution containing o-dianisidine (Sigma; St. Louis, Mo.) and 0.025% hydrogen peroxide, and finally incubated at 37° C. for 45 min. Spectrophotometric detection was obtained at 460 nm.

The subject of experiment [2] is polymorphonuclear leukocyte infiltration. The experiment is described as follows: Zymosan-induced peritonitis, leukocyte infiltration. Type of experiment: in vivo, mouse. The following applies: zymosan-induced peritonitis, FVB mice; i.v. bolus 1.5 min before Zymosan A; lavage at 2 h. The protocol:
The inhibition of leukocyte infiltration in zymosan-induced peritonitis by 4,17S-diHDHA and 10,17S-docosatriene (NPD1) was tested. […] Peritonitis was induced in 6- to 8-week-old male FVB mice (Charles River Laboratories) by peritoneal injection of 1 mg Zymosan A. The compounds 4,17S- and 10,17S-diHDHA were injected by intravenous bolus injection, 1.5 minutes before Zymosan A treatment. Two hours after induction of peritonitis, rapid peritoneal lavages were collected, and cell type enumeration was performed.

The test system of the next experiment is ARPE-19 cells. Description: Hoechst staining, TNFα/H2O2 oxidative stress-induced apoptosis. Type of experiment: cell-based, human. The following applies: 50 nM added with TNFα 10 ng/ml plus H2O2 (400-800 μM); 14 h. The protocol: ARPE-19 cell culture and chemicals: ARPE-19 cells (L. M. Hjelmeland, ATCC # CRL-2302) were grown and maintained in DMEM-F12 medium supplemented with 10% FBS and incubated at 37° C. with a constant supply of 5% CO2. ARPE-19 cells are spontaneously transformed human retinal pigment epithelial cells that conserve cellular biological and functional properties. All chemicals were purchased from Sigma Chemical Co. (St. Louis, Mo.) unless otherwise indicated.
Hoechst staining: ARPE-19 cells were loaded with 2 μM Hoechst dissolved in a Locke's solution (Promega, Madison, Wis.) and incubated one h at 37° C. before imaging. Cells were then washed once with PBS and viewed using a Nikon DIAPHOT 200 microscope under UV fluorescence. Images were recorded by a Hamamatsu Color Chilled 3CCD camera and Photoshop 5.0 software, as described in Mukherjee, P. K., DeCoster, M. A., Campbell, F. Z., Davis, R. J. & Bazan, N. G. (1999) J. Biol. Chem. 274:6493-6498.
Several experimental conditions that result in reproducible oxidative-stress-induced apoptosis in ARPE-19 cells were tested. One condition chosen was the combination of TNFα with H2O2, both in relatively low concentrations. Typically 10 ng/ml of TNFα and 400-800 μM H2O2 led to marked increase in Hoechst-positive cells (Data not shown). Neither TNFα nor H2O2 alone triggered a significant effect under these conditions. (Data not shown).
Serum starvation made ARPE-19 cells more sensitive to oxidative stress-triggered apoptosis induced by TNFα/H2O2. Cells were grown in culture for 72 h in the presence of BSA (3.35 μM) with or without DHA (6.7 μM). Endogenous NPD1 formation was enhanced by BSA-DHA (FIG. 12A).
In the next experiment, confluent cells were starved for 8 h, then TNFα/H2O2 was added and incubated for 14 h before staining with Hoechst reagent. NPD1 (50 nM) was added at the time of adding TNFα/H2O2. […] When the TNFα concentration (10 ng/ml) was maintained and H2O2 concentration was decreased from 800 to 400 μM, fewer Hoechst-positive cells were seen. […] (Data not shown).

The next experiment has as its system Bcl-xL gene expression. Description: HGU133 GeneChip DNA array in HN cells: Bcl-xL. The format is cell-based, human. The following applies: Aβ42 25 μM, DHA 50 nM or NPD1 50 nM, 18 h, nsc = no significant change.
A further experiment has as its system Bcl-2 gene expression. The experiment is described as follows: HGU133 GeneChip DNA array in HN cells: Bcl-2. The settings on record: Aβ42 25 μM, DHA 50 nM or NPD1 50 nM, 18 h, nsc = no significant change. The format is cell-based, human.
A further experiment deals with COX-2 expression. The experiment is described as follows: COX-2 mRNA abundance in ipsilateral hippocampus after MCA-O. Type of experiment: in vivo, mouse. The following applies: 1 h MCA-O, 2 h reperfusion, infused into third ventricle (NPD1 0.16 μg/ml). The protocol:
COX-2 RNA abundance in hippocampus and HN cells. Abundance of human-specific COX-1 and COX-2 RNA message was assayed using RT-PCR as described in Bazan, N. G., and Lukiw, W. J. (2002) J. Biol. Chem. 277, 30359-30367.
To determine COX-1 and COX-2 expression, mRNA abundance in the ipsilateral hippocampus was measured. […] A 3-fold increase of COX-2 was seen due to MCA-O reperfusion (FIG. 7C). The infusion of the precursor DHA as well as its product 10,17S-docosatriene (NPD1) inhibited COX-2 expression by 14% and 52%, respectively.

For experiment [3], the system named is NF-κB-DNA binding activity. The experiment is described as follows: EMSA of NF-κB in hippocampus after MCA-O. Type of experiment: in vivo, mouse. The settings on record: ipsilateral hippocampus; 1 h MCA-O, 2 h reperfusion; infused into third ventricle 3 h at 0.25 μl/h (NPD1 0.16 μg/ml). Here is the method: Electrophoretic mobility-shift assay (EMSA) of human AP1, HIF-1α, NF-κBp50/p65, and STAT-1α. Nuclear protein extracts (NPXTs) were prepared from one to three 3.5 cm-diameter wells of HN cells and quantitated. NPXTs (5 μg) derived from HN cells were incubated with[γ-^32P]-ATP (˜3000 Ci/mmol)-end-labeled AP1, HIF-1α, NF-κκBp50/p65, or STAT-1α consensus and mutant oligonucleotides in 5-μl volumes, reacted for 30 min on ice, analyzed on 5% or 10% acrylamide/90 mM Tris-borate pH 8.4, 1 mM EDTA (TBE) gels, dried onto 2-mm Whatman filter paper at 80° C. for 2 h, and phosphorimaged using a Typhoon Variable Mode Imager (Amersham Pharmacia Biotech, Piscataway, N.J. ).
FIGS. 7A, 7B, and 7C show mouse hippocampus after 1 h MCA-O was followed by 2 h reperfusion, where either vehicle, DHA, or 10,17S-docosatriene (NPD1) (0.16 μg/ml) was infused into the third ventricle for 3 h at 0.25 μl/h. […] NF-κB was increased over two fold in the ipsilateral hippocampus after MCA-O, and the infusion of either DHA or 10,17S-docosatriene (NPD1) inhibited ischemia-reperfusion-induced NF-κB activation by 28% and 48%, respectively (FIG. 7A).
In general terms: In EMSA bound probe runs differently from free probe, usually more slowly.

Experiment [4] relates to prostaglandin E2 (PGE2) formation. The experiment is described as follows: ELISA of PGE2 in hippocampus during reperfusion after MCA-O. The following applies: aspirin 7.52 mg/kg by gavage 15 min before MCA-O; C57BL/6 mice. Type of experiment: in vivo, mouse. The protocol: To confirm that the aspirin dose administered by gavage did reach the brain, the time course for prostaglandin E2, LTB4, and lipoxin A4 production was determined in the hippocampus in parallel assays. The time course of prostaglandin E2, leukotriene B4, and lipoxin A4 formation was followed in mouse hippocampus after 1-h middle cerebral artery occlusion (MCA-O), followed by reperfusion with (FIG. 2B) or without (FIG. 2A) aspirin treatment. Detection of the compounds was performed by sensitive and specific ELISA, in tandem, for prostaglandin E2 (PGE2), leukotriene B4 (LTB4), and lipoxins (LXA4) (Neogen, Lexington, Ky.). […] Maximal LTB4 was generated in aspirin-treated hippocampus by 8 h, as was the case with lipoxin A4, which also peaked within 8 h.
On the technique in general: An ELISA detects its analyte on a solid surface through an enzyme-linked reagent.

The test system of experiment [5] is Aβ40 and Aβ42 peptide secretion. The experiment is described as follows: Aβ40 and Aβ42 peptide secretion by aging HN cells (Western immunoblot of medium). Type of experiment: cell-based, human. The settings on record: aging HN cells cultured up to 8 weeks; DHA 50 nM or IL-1β 10 ng/ml continuously in medium. The protocol: Human Neural (HN) Cells. HN cells in primary culture, starting as primary spheroids (CC-2599, Clonetics, Walkersville, Md.), were grown in neural progenitor maintenance medium (NPMM) containing human epidermal and fibroblast growth factor, gentamicin/amphotericin (G/A1000), and neural survival factor-1 for up to 8 weeks. […] (Data not shown).
Additions of IL-1β and DHA to the Growth Medium. After 1 week of HN cell growth, IL-1β (10 ng/ml) or DHA (50 nM) was added to the NPMM culture medium.
To determine the effect of cytokine-mediated stress on aging HN cells, AP peptide release was assayed in the continuous presence in the culture medium of IL-1β, an inducer of reactive oxygen species (ROS) generation and oxidative stress as described in Lynch, A. M., Moore, M., Craig, S., Lonergan, P. E., Martin, D. S., Lynch, M. A. (2003) J. Biol. Chem., 278: 51075-51084; and Kaur, J., Dhaunsi, G. S., Turner, R. B. (2004) Med. Princ. Pract., 13: 26-29. Parallel experiments in aging HN cells were performed in the presence of control neuro-progenitor maintenance medium (NPMM) and the continuous presence of NPMM+DHA.

Setting [6] is: 1 μg or 3 μg over 48 h (dose of the value not stated).

As for “10,17S-docosatriene methyl ester [10,17S-docosatriene (NPD1) methyl ester]”, in experiment [1] (setting [6]), the “inhibition of ipsilateral myeloperoxidase activity, hippocampus” value is given as 49% and the “inhibition of ipsilateral myeloperoxidase activity, neocortex” value amounted to 97%.
In the case of `CCC=CCC(O)C=CC=CCC=CCC=CC=CC(O)CCC(=O)O` (stereo not drawn) [4,17S-diHDHA], the “inhibition of polymorphonuclear leukocyte infiltration” value in [2] is “dose-dependent inhibition; also recorded: some inhibition”.
For the compound `O=C(O)CCC[C@H](O)\C=C/C=C/C=C/[C@H](O)C/C=C\CCCCCO` [20-OH-LTB4], the “inhibition of oxidative stress (TNFα/H2O2)-induced Hoechst-positive cells / apoptosis” value with ARPE-19 cells is reported as “neither PGE2, LTB4, nor 20-OH-LTB4 (each at 50 nM) was able to elicit the degree of inhibition”.
`CCCCC/C=C\C/C=C\C/C=C\C/C=C\CCCC(=O)O` [Arachidonic acid, arachidonic acid]: the “inhibition of oxidative stress (TNFα/H2O2)-induced Hoechst-positive cells / apoptosis” value in the experiment on ARPE-19 cells is given as “partially effective”.
Take `CC/C=C\C/C=C\C/C=C\C/C=C\C/C=C\C/C=C\CCC(=O)O` [DHA, docosahexaenoic acid]: in the experiment on Bcl-xL gene expression, the “Bcl-xL gene expression, fold change over untreated controls” value is recorded as “+1.5 fold”. Further, the “Bcl-2 gene expression, fold change over untreated controls” value in the experiment with Bcl-2 gene expression is reported as “+2.5 fold”. The “inhibition of COX-2 expression (mRNA)” value with COX-2 expression is reported as 14%. Moreover, the “inhibition of myeloperoxidase activity, hippocampus” value is 60% in experiment [1] (2 μg over 48 h perfusion), 72% in experiment [1] (20 μg over 48 h perfusion) and 82% in [1] (200 μg over 48 h perfusion). Besides, the “inhibition of myeloperoxidase activity, neocortex” value in experiment [1] (2 μg over 48 h perfusion) is “no inhibition”; in [1] (20 μg over 48 h perfusion) it was 40%; in experiment [1] (200 μg over 48 h perfusion) it was 73%. The “inhibition of ischemia-reperfusion-induced NF-κB activation” value in [3] came out at 28%.
`CCCCC/C=C\C[C@@H](O)/C=C/C=C/C=C\[C@@H](O)CCCC(=O)O` [LTB4, leukotriene B4]: the “inhibition of oxidative stress (TNFα/H2O2)-induced Hoechst-positive cells / apoptosis” value with ARPE-19 cells is “partially inhibitory”.
In the case of `CCCCC[C@H](O)/C=C/[C@H]1[C@H](O)CC(=O)[C@@H]1C/C=C\CCCC(=O)O` [PGE2, prostaglandin E2], the “inhibition of oxidative stress (TNFα/H2O2)-induced Hoechst-positive cells / apoptosis” value in the experiment with ARPE-19 cells is “neither PGE2, LTB4, nor 20-OH-LTB4 (each at 50 nM) was able to elicit the degree of inhibition”.
As to `CC(=O)Oc1ccccc1C(=O)O` [aspirin], the “effect on accumulation of PGE2 in hippocampus within 8 h of reperfusion” value in experiment [4] was “inhibited”.
On to “IL-1β: human recombinant interleukin 1-beta, cytokine stressor”, for which the “effect on Aβ peptide (Aβ40 and Aβ42) secretion” value in experiment [5] is reported as “enhanced”.
